Assay results reported in US8552022B2, “Substituted cyclopropyl compounds, compositions containing such compounds and methods of treatment” (Merck Sharp & Dohme Corp., priority 2009, dated 2013).

The compounds below were run against T1, GPR119 (UniProt Q8TDV5, S309L, species not given) (assay: GPR119 signaling, cyclic AMP (cAMP) HTRF assay). Conditions: CHO cells with Gα15 and murine GPR119 or HEK293 Flp-In cells with human GPR119 S309L, read-out: EC50 (agonist activation of GPR119, cAMP).
T1 sequence (Q8TDV5 1-335 S309L): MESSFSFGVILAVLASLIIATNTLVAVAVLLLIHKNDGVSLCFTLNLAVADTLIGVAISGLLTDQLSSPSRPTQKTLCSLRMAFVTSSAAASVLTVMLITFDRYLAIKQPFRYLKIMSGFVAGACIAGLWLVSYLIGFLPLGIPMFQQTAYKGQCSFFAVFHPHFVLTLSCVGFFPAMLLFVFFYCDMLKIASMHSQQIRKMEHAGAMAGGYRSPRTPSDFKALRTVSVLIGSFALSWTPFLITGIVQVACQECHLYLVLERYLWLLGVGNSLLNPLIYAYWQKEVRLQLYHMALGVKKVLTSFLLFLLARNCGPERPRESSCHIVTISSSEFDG
Type: cell-based, human (S309L variant) or murine
From the text: The title compound was synthesized using 2-{2-[1-(5-chloropyrimidin-2-yl)piperidin-4-yl]cyclopropyl}ethyl 4-methylbenzenesulfonate from step 1 of this example by a general procedure analogous that described in Example 59. LRMS calc: 424.9; obs: 425.01 (M+1). Measurement of GPR119Signaling Using a Cyclic AMP (cAMP) Homogenous Time Resolved Fluorescence (HTRF) Assay
Chinese hamster ovary (CHO) cell lines stably transfected with the permissive guanine nucleotide binding protein alpha 15 (Gα15) and murine GPR119 were maintained in DMEM media containing FBS, penicillin-streptomycin, puromycin, and G418 (geneticin). Alternatively, human embryonic kidney (HEK)293 Flp-In cells (Invitrogen, Carlsbad, Calif.) were stably transfected with a human SNP variant (S309L) of GPR119 and maintained in DMEM media containing FBS, penicillin-streptomycin, and hygromycin. Agonist activation of the GPR119 receptor was measured in receptor transfected cells described above, treated with compounds of this invention, using a commercial homogenous time resolved fluorescence (HTRF) kit for measurement of cAMP (CisBio, Bedford, Mass.). The assay was performed in 96-well half-volume plates (murine) or 384-well plates (human) following the manufacturers instructions. Briefly, suspended cells were incubated with a dose titration of test compound at room temperature for 60 min, lysed, and incubated with HTRF reagents for an additional 60 min. The plate was read using an Envision multilabel reader (Perkin Elmer) adjusted to read time resolved fluorescence and the cAMP concentrations were extrapolated from a cAMP calibration curve. […] The concentration of test compound required to stimulate a half-maximal response (EC50), and efficacy as compared to an internal agonist control, was determined from a sigmoidal 4-parameter curve fit of the resulting plot of normalized activity versus compound concentration.

| Structure (SMILES) | EC50 [µM] |
| --- | --- |
| O=C1COC(=O)N1c1ccc(NCC[C@@H]2C[C@@H]2C2CCN(c3ncc(Cl)cn3)CC2)cn1 [Ex 27] | 0.01 to 0.05 |
| CC(=O)Nc1cnc(NCC[C@@H]2C[C@@H]2C2CCN(c3ncc(Cl)cn3)CC2)c(C)c1 [Ex 33, N-{6-[(2-{(1S,2S)-2-[1-(5-chloropyrimidin-2-yl)piperidin-4-yl]cyclopropyl}ethyl)amino]-5-methylpyridin-3-yl}acetamide] | 0.01 to 0.05 |
| CC(=O)Nc1cnc(NCC[C@@H]2C[C@@H]2C2CCN(c3ncc(Cl)cn3)CC2)cc1C [Ex 34, N-{6-[(2-{(1S,2S)-2-[1-(5-chloropyrimidin-2-yl)piperidin-4-yl]cyclopropyl}ethyl)amino]-4-methylpyridin-3-yl}acetamide] | 0.01 to 0.05 |
| CC(=O)Nc1ccc(NCC[C@@H]2C[C@@H]2C2CCN(c3ncc(Cl)cn3)CC2)nc1 [Ex 35, N-{6-[(2-{(1S,2S)-2-[1-(5-chloropyrimidin-2-yl)piperidin-4-yl]cyclopropyl}ethyl)amino]pyridin-3-yl}acetamide] | 0.01 to 0.05 |
| Cc1cc(C#N)cc(NCC[C@@H]2C[C@@H]2C2CCN(c3ncc(Cl)cn3)CC2)n1 [Ex 40, 2-[(2-{(1S,2S)-2-[1-(5-chloropyrimidin-2-yl)piperidin-4-yl]cyclopropyl}ethyl)amino]-6-methylisonicotinonitrile] | 0.01 to 0.05 |
| Cc1cc(C#N)nc(NCC[C@@H]2C[C@@H]2C2CCN(c3ncc(Cl)cn3)CC2)c1 [Ex 41, 6-[(2-{(1S,2S)-2-[1-(5-chloropyrimidin-2-yl)piperidin-4-yl]cyclopropyl}ethyl)amino]-4-methylpyridine-2-carbonitrile] | 0.01 to 0.05 |
| O=C(Cc1ccc(NCC[C@@H]2C[C@@H]2C2CCN(c3ncc(Cl)cn3)CC2)cc1)NC1CC1 [Ex 43, 2-{4-[(2-{(1S,2S)-2-[1-(5-chloropyrimidin-2-yl)piperidin-4-yl]cyclopropyl}ethyl)amino]phenyl}-N-cyclopropylacetamide] | 0.01 to 0.05 |
| CN1Cc2cc(NCC[C@@H]3C[C@@H]3C3CCN(c4ncc(Cl)cn4)CC3)ccc2C1=O [Ex 45, 5-[(2-{(1S,2S)-2-[1-(5-chloropyrimidin-2-yl)piperidin-4-yl]cyclopropyl}ethyl)amino]-2-methylisoindolin-1-one] | 0.01 to 0.05 |
| Cn1ncc2cc(NCC[C@@H]3C[C@@H]3C3CCN(c4ncc(Cl)cn4)CC3)ccc21 [Ex 48, N-(2-{(1S,2S)-2-[1-(5-chloropyrimidin-2-yl)piperidin-4-yl]cyclopropyl}ethyl)-1-methyl-1H-indazol-5-amine] | 0.01 to 0.05 |
| Cn1cc2cc(NCC[C@@H]3C[C@@H]3C3CCN(c4ncc(Cl)cn4)CC3)ccc2n1 [Ex 49, N-(2-{(1S,2S)-2-[1-(5-chloropyrimidin-2-yl)piperidin-4-yl]cyclopropyl}ethyl)-2-methyl-2H-indazol-5-amine] | 0.01 to 0.05 |
| O=C1Cc2cc(NCC[C@@H]3C[C@@H]3C3CCN(c4ncc(Cl)cn4)CC3)ccc2N1 [Ex 50, 5-[(2-{(1S,2S)-2-[1-(5-chloropyrimidin-2-yl)piperidin-4-yl]cyclopropyl}ethyl)amino]-1,3-dihydro-2H-indol-2-one] | 0.01 to 0.05 |

Next, values leading:

| EC50 [µM] | Structure (SMILES) |
| --- | --- |
| 0.01 to 0.05 | Clc1cnc(N2CCC([C@H]3C[C@H]3CCNc3cnc(-n4cnnn4)nc3)CC2)nc1 [Ex 26, N-(2-{(1S,2S)-2-[1-(5-chloropyrimidin-2-yl)piperidin-4-yl]cyclopropyl}ethyl)-2-(1H-tetrazol-1-yl)pyrimidin-5-amine] |
| < 0.01 | Cc1cc(NC(=O)C(C)(C)C)cnc1NCC[C@@H]1C[C@@H]1C1CCN(c2ncc(Cl)cn2)CC1 [Ex 28, N-{6-[(2-{(1S,2S)-2-[1-(5-chloropyrimidin-2-yl)piperidin-4-yl]cyclopropyl}ethyl)amino]-5-methylpyridin-3-yl}-2,2-dimethylpropanamide] |
| < 0.01 | Cc1cc(NCC[C@@H]2C[C@@H]2C2CCN(c3ncc(Cl)cn3)CC2)ncc1NC(=O)C(C)(C)C [Ex 29, N-{6-[(2-{(1S,2S)-2-[1-(5-chloropyrimidin-2-yl)piperidin-4-yl]cyclopropyl}ethyl)amino]-4-methylpyridin-3-yl}-2,2-dimethyl propanamide] |
| < 0.01 | CC(C)(C)C(=O)Nc1ccc(NCC[C@@H]2C[C@@H]2C2CCN(c3ncc(Cl)cn3)CC2)nc1 [Ex 30, N-{6-[(2-{(1S,2S)-2-[1-(5-chloropyrimidin-2-yl)piperidin-4-yl]cyclopropyl}ethyl)amino]pyridin-3-yl}-2,2-dimethyl propanamide] |
| < 0.01 | Cc1cc(NCC[C@@H]2C[C@@H]2C2CCN(c3ncc(Cl)cn3)CC2)cnc1NC(=O)C(C)(C)C [Ex 31, N-{5-[(2-{(1S,2S)-2-[1-(5-chloropyrimidin-2-yl)piperidin-4-yl]cyclopropyl}ethyl)amino]-3-methylpyridin-2-yl}-2,2-dimethyl propanamide] |
| < 0.01 | CC(C)(C)C(=O)Nc1ncc(NCC[C@@H]2C[C@@H]2C2CCN(c3ncc(Cl)cn3)CC2)cc1Cl [Ex 32, N-{3-chloro-5-[(2-{(1S,2S)-2-[1-(5-chloropyrimidin-2-yl)piperidin-4-yl]cyclopropyl}ethyl)amino]pyridin-2-yl}-2,2-dimethyl propanamide] |
| < 0.01 | Cc1cc(-n2cnnn2)cnc1NCC[C@@H]1C[C@@H]1C1CCN(c2ncc(Cl)cn2)CC1 [Ex 36, N-(2-{(1S,2S)-2-[1-(5-chloropyrimidin-2-yl)piperidin-4-yl]cyclopropyl}ethyl)-3-methyl-5-(1H-tetrazol-1-yl)pyridin-2-amine] |
| < 0.01 | CC1(C(=O)Nc2ccc(NCC[C@@H]3C[C@@H]3C3CCN(c4ncc(Cl)cn4)CC3)nc2)CC1 [Ex 37, N-{6-[(2-{(1S,2S)-2-[1-(5-chloropyrimidin-2-yl)piperidin-4-yl]cyclopropyl}ethyl)amino]pyridin-3-yl}-1-methylcyclopropanecarboxamide] |
| < 0.01 | CC1(C(=O)Nc2ccc(NCC[C@@H]3C[C@@H]3C3CCN(c4ncc(Cl)cn4)CC3)cn2)CC1 [Ex 38, N-{5-[(2-{(1S,2S)-2-[1-(5-chloropyrimidin-2-yl)piperidin-4-yl]cyclopropyl}ethyl)amino]pyridin-2-yl}-1-methylcyclopropane carboxamide] |
| < 0.01 | Cc1cc(NCC[C@@H]2C[C@@H]2C2CCN(c3ncc(Cl)cn3)CC2)cnc1NC(=O)C1(C)CC1 [Ex 39] |
| < 0.01 | Clc1cnc(N2CCC([C@H]3C[C@H]3CCNc3ccc4[nH]ncc4c3)CC2)nc1 [Ex 42, N-(2-{(1S,2S)-2-[1-(5-chloropyrimidin-2-yl)piperidin-4-yl]cyclopropyl}ethyl)-1H-indazol-5-amine] |
| < 0.01 | O=C1NCc2cc(NCC[C@@H]3C[C@@H]3C3CCN(c4ncc(Cl)cn4)CC3)ccc21 [Ex 44, 5-[(2-{(1S,2S)-2-[1-(5-chloropyrimidin-2-yl)piperidin-4-yl]cyclopropyl}ethyl)amino]isoindolin-1-one] |
| < 0.01 | O=C1c2ccc(NCC[C@@H]3C[C@@H]3C3CCN(c4ncc(Cl)cn4)CC3)cc2CN1C1CC1 [Ex 46, 5-[(2-{(1S,2S)-2-[1-(5-chloropyrimidin-2-yl)piperidin-4-yl]cyclopropyl}ethyl)amino]-2-cyclopropylisoindolin-1-one] |
| < 0.01 | Cc1n[nH]c2ccc(NCC[C@@H]3C[C@@H]3C3CCN(c4ncc(Cl)cn4)CC3)cc12 [Ex 47, N-(2-{(1S,2S)-2-[1-(5-chloropyrimidin-2-yl)piperidin-4-yl]cyclopropyl}ethyl)-3-methyl-1H-indazol-5-amine] |
